The subject of one test is Arabidopsis. In words: Arabidopsis assay with addition of brassinolide precursors. It counts as in vivo. The method, then:
(§1) The Arabidopsis germination assay was performed as follows. Seeds of wild-type and det were treated at a low temperature (2° C.) for 2 days, and the surfaces were sterilized with 1% NaOCl solution for 2 minutes and washed seven times with sterilized distilled water. The seeds were sown on 1% agar solid medium containing 0.5×Murashige and Skoog (1962) salt and 1.5% (w/v) sucrose in a plastic plate in the presence or absence of the test compound. The wild-type plant and det2 plant were grown in a growth chamber for 16 hours under a light condition (240 mE/m2s) and for 8 hours under a dark condition (25° C.). For the screening experiment, the plate was sealed with Parafilm (American National Can Co., Ltd., Chicago, Ill., USA). For the restoration experiment that required a longer experimental period, the seeds were sown on 1% agar solid medium containing 0.5×Murashige and Skoog (1962) salt and 1.5% (w/v) sucrose in Agripot (Kirin Brewery Co., Ltd.). The plants were grown in a growth chamber for 16 hours under a light condition (240 mE/m2s) and for 8 hours under a dark condition (28° C.).
In order to confirm the action of RMB-61 also in the Arabidopsis assay, the seeds were grown with addition of the aforementioned brassinolide precursors, and recovery of the growth retardation caused by the RMB-61 treatment was observed. […] If RMB-61 is a specific inhibitor against the oxidation of cathasterone, it is expected that the morphological traits of the treated plants have similarities to the phenotypes of the mutants such as cpd (Szekeres et al., Cell, 85, pp.171-182, 1996). It is further expected that the action of RMB-61 will disappear when typhasterol, castasterone or brassinolide is administered, and in addition, the cpd phenotypes caused by brassinosteroids will disappear.

Test [1] has as its system dwarfed rice plant (Oryza sativa cv. Tan-ginbozu). The test can be described thus: rice leaf lamina inclination bioassay, explantation method. It counts as in vivo. The note with it: RMB-61 1 μg/plant; FIG. 1.
For test [2], the system named is Arabidopsis (wild-type, Colombia). The test can be described thus: Arabidopsis germination assay. It counts as in vivo. On the procedure: Arabidopsis mutants such as det2 (de-etiolation) and cpd (constitutive photomorphogenesis and dwarfism) show strong dwarfism manifested as curled leaves in deep green. Although this phenotype disappears when brassinolide is administered externally, other plant hormones such as IAA and gibberellin are ineffective. Based on these findings, the compound of the present invention (Compound 1 obtained in Example 1) was used in Arabidopsis (wild-type, Colombia) germination assay. Screening was performed under a light condition with criteria whether or not the compound generates abnormality 1) which is morphologically similar to mutants in the brassinosteroid biosynthesis and 2) which disappears when brassinolide is administered. It was also examined whether or not the morphological change induced by the test compound was restored to the morphology of wild-type by addition of braassinolide under a dark condition.
as §1

Test [3] deals with rice (Oryza sativa cv. Koshihikari). The test can be described thus: rice growth bioassay (rice elongation test). It counts as in vivo. The conditions noted are these: for growth of the rice plant (length of shoots): in vivo. On the procedure: Further, rice growth bioassay was performed as follows. Seeds of rice (Oryza sativa cv. Koshihikari) were immersed in tap water for 2 hours, and then 10 seeds were immersed in 2 ml of 10 mM sodium acetate buffer (pH 5.4) containing 10 mM CaCl2 filled in a sterilized 15-ml test tube in the presence or absence of a test compound. The plants were grown in a growth chamber for 16 hours under a light condition (240 mE/m2s) and for 8 hours under a dark condition (25° C.). The plants were collected and the length of shoots was measured.

The test system of test [4] is dwarfed rice plant (Oryza sativa cv. Tan-ginbozu). In words: rice leaf lamina inclination bioassay, whole plant method. It counts as in vivo. The method, then: In the figure, “Angle” indicates an inclination angle; and the results are indicated with “Cont” for control (no treatment); “CT” for cathasterone (100 ng); “TE” for teasterone (100 ng); and “BL” for brassinolide (0.1 ng) wherein each dose per plant is shown. Generally, the biological activity of brassinosteroids is often evaluated by the in vitro rice leaf lamina inclination bioassay (explantation method: Wada et al., Plant Cell Physiol., 22, pp.323-325, 1981; Takatsuto, J. Chromat. A., 658, pp.3-15, 1994) which is highly sensitive and reliable. However, this conventional method is not suitable for analyzing the mechanism of action of brassinosteroid biosynthesis inhibitors. Recently, Fujioka et al. reported a method (whole plant method) in which the rice leaf lamina inclination bioassay is improved as an […] system. This method reflects the actual biosynthesis process of brassinosteroids by administration of various precursors of brassinolide. The inhibitory action of the compound of the present invention against the brassinolide biosynthesis was evaluated by the explantation method and the whole plant method. The rice leaf lamina inclination bioassay was performed essentially according to the procedure reported by Fujioka et al. as mentioned above by using a dwarfed rice plant (Oryza sativa cv. Tan-ginbozu). Seeds were immersed in water for 2 days at 28° C., and germinated seeds were subjected to selection of those having a uniform coleoptile length (about 1 to 2 mm). Five germinated seeds were planted on 30 ml of 1% agar medium contained in a glass jar (inner diameter: 26 mm×60 mm), and incubated under the aforementioned conditions for 3 days. Each test compound for the bioassay was dissolved in ethanol and placed on a lamina in an amount of […] by using a microsyringe. After the plants were incubated under the same growth conditions for 2 days, the external angle between the leaf lamina and its sheath was measured by using an annular protractor. Thirty plants in total (6 jars) were used for each treatment.

The subject of the next test is vessel elements. The note with it: cited from earlier work.
The test system of another test is endogenous castasterone. The conditions noted are these: side effect; cited from earlier work.

On to `CC(O)(c1ccccc1)C(Cc1ccc(Cl)cc1)n1cncn1` (centres unmarked) [Compound 1, 4-(4-chlorophenyl)-2-phenyl-3-(1,2,4-triazoyl)butan-2-ol], for which the “greening effect on administration of brassinosteroids” value in the test with Arabidopsis (brassinosteroids except for cathasterone) is “eliminated”. For the same compound, the greening of plants entry in the test on Arabidopsis (under weak light) is given as “promoted greening”. The “growth retardation in the presence of cathasterone” value with Arabidopsis (with cathasterone) is listed as “maintained”. Besides, in the test on Arabidopsis (with teasterone, 3-deoxoteasterone, typhasterol, castasterone or brassinolide), the “action of RMB-61 (growth retardation) in presence of brassinosteroids” value is “strongly inhibited the action of RMB-61”. The “inhibition of the action of brassinolide (inclination angle)” value in test [1] is “absolutely no inhibition”. Further, the induction of dwarfism result in test [2] (at 10^−6 M, among the test compounds) is given as “most potent induction of dwarfism”. In addition, in test [2] (dose-effect test), the “concentration at which shapes of the plants significantly resemble det2 mutant” value was ≥ 10^−5 M. The “dwarfism / morphological change on simultaneous administration of brassinolide” value in test [2] (with brassinolide) is “negated”. Besides, in test [3], the “growth of the rice plant (length of shoots)” value (from here on “growth of the rice plant”) is on record as “no effect”. Moreover, in test [3] (with gibberellin), the “effect on the gibberellin treatment” value is “completely failed to effect the gibberellin treatment”. In addition, in test [4] (RMB-61 5 μg/plant, FIG. 2), the “effect on the inclination action by teasterone, typhasterol and castasterone” value is given as “failed to offset”. The “effect on the action of cathasterone (inclination angle)” value in test [4] (RMB-61 5 μg/plant, cathasterone 100 ng, FIG. 2) is “inhibited the action of cathasterone”. For the same compound, the “response of the rice plant to brassinosteroid after adding teasterone or brassinolide” value in test [4] (rice plant in which the effect of cathasterone was negated by RMB-61) is “restored”.

As for `CC(C)(C)C(O)/C(=C\c1ccc(Cl)cc1)n1cncn1` (centres unmarked) [Uniconazol], the “differentiation of vessel elements induced by brassinolide” value in the test with vessel elements is “inhibits differentiation of vessel elements”. Also, in test [3], the “growth of the rice plant” value is on record as “strong growth retardation action”. Also, the “amount of endogenous castasterone” value in the test with endogenous castasterone is given as “slight reduction”.

Turning to `CC(C)(C)[C@@H](O)[C@@H](Cc1ccc(Cl)cc1)n1cncn1` [paclobutrazol, reference compound], in test [3], the “growth of the rice plant” value is on record as “elongation retardation action”.
